In brackets after ≈: the same amount, converted by molar mass.
Columns and labels:
[1] = tested on: Staphylococcus aureus; experiment: Antimicrobial activity against 2 MCF vancomycin-intermediate Staphylococcus aureus isolate JKD6008 by Etest method
[2] = tested on: Staphylococcus aureus; experiment: Antimicrobial activity against 2 mCF Staphylococcus aureus isolate JKD6208 harboring graS T136I mutant gene by Etest method
[3] = tested on: Staphylococcus aureus; experiment: Antimicrobial activity against 2 MCF graRS-deficient Staphylococcus aureus isolate JKD6196 by Etest method
[4] = tested on: Staphylococcus aureus; experiment: Antimicrobial activity against 2 MCF graRS-deficient Staphylococcus aureus isolate JKD6205 harboring pCu1 plasmid by Etest method
[5] = tested on: Staphylococcus aureus; experiment: Antimicrobial activity against 2 MCF graRS-deficient Staphylococcus aureus isolate JKD6206 harboring plasmid JKD6151 by Etest method

CN[C@H](CC(C)C)C(=O)N[C@H]1C(=O)N[C@@H](CC(N)=O)C(=O)N[C@H]2C(=O)N[C@H]3C(=O)N[C@H](C(=O)N[C@H](C(=O)O)c4cc(O)cc(O)c4-c4cc3ccc4O)[C@H](O)c3ccc(c(Cl)c3)Oc3cc2cc(c3O[C@@H]2O[C@H](CO)[C@@H](O)[C@H](O)[C@H]2O[C@H]2C[C@](C)(N)[C@H](O)[C@H](C)O2)Oc2ccc(cc2Cl)[C@H]1O [VANCOMYCIN]
MIC [1]: 8 µg/mL (≈ 5.52 µM)
MIC [2]: 6 µg/mL (≈ 4.14 µM)
MIC [3]: 1.5 µg/mL (≈ 1.04 µM)
MIC [4]: 1.5 µg/mL (≈ 1.04 µM)
MIC [5]: 3 µg/mL (≈ 2.07 µM)

— ChEMBL document CHEMBL1275507, “Genomic analysis reveals a point mutation in the two-component sensor gene graS that leads to intermediate vancomycin resistance in clinical Staphylococcus aureus” (2008)
